The values that follow come from patent publication US9096593B2, “Compounds and methods for kinase modulation, and indications therefor” (Plexxikon Inc., priority 2009, dated 2015).

One test deals with BCR-KIT/BaF3 cells (Homo sapiens, UniProt P10721). Put plainly: BCR-KIT/BaF3 cell proliferation assay (ATPlite). As to conditions: read-out: BCR/BaF3 (IC50 μM) Kit. The class given is cell-based. As for the experimental part: Compounds are assessed in a variety of cell based assays. For example BCR-FMS/BaF3, BCR-KIT/BaF3, M-NFS-60, M-07e, and BAC1.2F5 cell proliferation assays are used to assess inhibitory activity of Fms or Kit and MV-4-11 cell proliferation assay is used to assess inhibitory activity in Flt-3. Reagent and assay conditions are as follows: • BCR-FMS/BaF3 and BCR-KIT/BaF3 cells: • Maintained in RPMI containing 10% FBS, 1% PenStrep, 1% NEAA, and 1% L-Glutamine, supplemented with 1 mg/mL G418 and 5% WEHI-CM (or recombinant murine IL-3). • Confluent cells are split 1:50 to 1:100 every 3-4 days. • M-NFS-60 cells (ATCC #CRL-1838): • Maintained in RPMI containing 10% FBS, 1% Hepes, 1% NaPyruvate, and 0.45% Glucose, supplemented with 62 ng/mL murine M-CSF. • Confluent cells are split 1:20 every 3-4 days. • M-07e cells (DSMZ #ACC 104): • Maintained in IMDM containing 10% FBS, supplemented with either 200 ng/mL human SCF or […] SCF (R&D Systems 255-SC). • Confluent cells are split 1:5 to 1:10 every 3-4 days. • BAC1.2F5 cells: • Maintained in Alpha-MEM containing 10% Newborn Calf Serum (Invitrogen #26010-074) supplemented with 36 ng/mL murine M-CSF. • Confluent cells are split 1:4 every 3-4 days. • MV-4-11 cells: • Maintained in Iscove's Modified Dulbecco's Medium containing 10% FBS. • Confluent cells are split 1:4 every 3-4 days. On day 1, cells are counted, then centrifuged in a conical tube for 5 minutes at 1000 rpm. The supernatant is removed and cells are re-suspended as follows: • BCR-FMS/BaF3 and BCR-KIT/BaF3: resuspend in growth media+1 mg/mL G418 (without WEHI/IL-3) to 2×10^5 cells/mL. • M-NFS-60: resuspend in growth media +62 ng/mL murine M-CSF to 5×10^5 cells/mL. • M-07e: resuspend in growth media +200 ng/mL human SCF to 5×10^5 cells/mL. • BAC1.2F5: resuspend in growth media +36 ng/mL murine M-CSF to 1.4×10^5 cells/mL. • MV-4-11: resuspend in growth media +10% FBS to 5×10^5 cells/mL. The cells are plated (50 μL) in each well of a 96-well dish (Corning 3610) and incubated at 37° C. in 5% CO2 overnight, cells plated to a final concentration of cells as follows: • BCR-FMS/BaF3 and BCR-KIT/BaF3: 10,000 cells per well. • M-NFS-60: 25,000 cells per well. • M-07e: 25,000 cells per well. • BAC1.2F5: 7,000 cells per well. • MV-4-11: 25,000 cells per well. On day 2, compound at a maximum concentration of 5 mM is serially diluted 1:3 for a total of 8 point titration with DMSO as a control. A 1 μL aliquot of each dilution point is added to 249 μL growth media and 50 μL is added to a well containing cells, providing 10 μM compound for the maximum concentration point. The cells are incubated for 3 days at 37° C. in 5% CO2. On day 5, ATPlite 1 step Luminescence Assay System (Perkin Elmer #6016739) is brought to room temperature along with the cell cultures. ATPlite is added to each well as follows: • BCR-FMS/BaF3 and BCR-KIT/BaF3: 25 μL per well. • M-NFS-60: 25 μL per well. • M-07c: 40 μL per well. • BAC1.2F5: 50 μL per well. • MV-4-11: 40 μL per well. The cells are incubated at room temperature for 10 minutes, then luminescence is read on Safire reader. The measured luminescence correlates directly with cell number, such that the reading as a function of compound concentration is used to determine the IC50 value.
(In general: In ATP-based viability assays light output follows the ATP content of the culture.)

The next test deals with BCR-FMS/BaF3 cells (Homo sapiens, UniProt P07333). The test is described as follows: BCR-FMS/BaF3 cell proliferation assay (ATPlite). The class given is cell-based. The following applies: for BCR/BaF3 selectivity (Kit IC50/Fms IC50): Kit IC50/Fms IC50, BCR-KIT/BaF3 vs BCR-FMS/BaF3 cells; for IC50: BCR-FMS/BaF3 cells. The procedure, abridged: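 BCR-FMS/BaF3 cells at 2×10^5 cells/mL in growth media with 1 mg/mL G418, without WEHI/IL-3, treated with 8-point 1:3 compound titrations (top 10 μM final) for 3 days at 37 °C, 5% CO2. Cell number by ATPlite luminescence; IC50 from signal versus concentration.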

[1] abbreviates: read-out: BCR/BaF3 (IC50 μM) Fms.
[2] abbreviates: read-out: Cell based (IC50 μM) BCR/BaF3 (Fms), 3 days.

Structures are written as SMILES. Read-outs that look alike come from different tables or passages of the source.

BCR-KIT/BaF3 cells, sequence (P10721 26-976 limits assumed, change not shown): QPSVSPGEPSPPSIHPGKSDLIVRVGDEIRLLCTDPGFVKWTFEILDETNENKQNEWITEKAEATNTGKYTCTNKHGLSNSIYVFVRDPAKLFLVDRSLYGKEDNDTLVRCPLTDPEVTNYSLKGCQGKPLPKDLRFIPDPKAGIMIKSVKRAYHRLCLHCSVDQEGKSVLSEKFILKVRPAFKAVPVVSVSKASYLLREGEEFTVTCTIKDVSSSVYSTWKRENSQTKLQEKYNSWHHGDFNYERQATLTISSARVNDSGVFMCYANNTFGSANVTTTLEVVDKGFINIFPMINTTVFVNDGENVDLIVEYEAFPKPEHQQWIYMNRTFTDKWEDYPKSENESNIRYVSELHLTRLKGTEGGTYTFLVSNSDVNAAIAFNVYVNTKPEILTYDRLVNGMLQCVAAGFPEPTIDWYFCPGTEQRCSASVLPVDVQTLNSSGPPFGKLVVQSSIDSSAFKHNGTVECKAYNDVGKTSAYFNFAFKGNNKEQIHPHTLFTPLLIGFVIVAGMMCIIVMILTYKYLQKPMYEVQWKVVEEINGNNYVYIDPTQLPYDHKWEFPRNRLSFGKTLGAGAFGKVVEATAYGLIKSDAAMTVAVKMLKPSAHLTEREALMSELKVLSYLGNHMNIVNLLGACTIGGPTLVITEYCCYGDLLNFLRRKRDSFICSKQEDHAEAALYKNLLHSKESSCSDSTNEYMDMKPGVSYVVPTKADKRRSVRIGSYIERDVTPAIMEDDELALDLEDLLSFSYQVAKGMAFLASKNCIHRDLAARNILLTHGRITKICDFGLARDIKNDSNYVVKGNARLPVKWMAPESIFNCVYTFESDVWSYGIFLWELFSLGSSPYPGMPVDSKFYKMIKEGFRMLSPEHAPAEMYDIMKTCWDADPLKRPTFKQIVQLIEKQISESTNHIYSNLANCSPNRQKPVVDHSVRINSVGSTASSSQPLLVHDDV
BCR-FMS/BaF3 cells, sequence (P07333 20-972 limits assumed, change not shown): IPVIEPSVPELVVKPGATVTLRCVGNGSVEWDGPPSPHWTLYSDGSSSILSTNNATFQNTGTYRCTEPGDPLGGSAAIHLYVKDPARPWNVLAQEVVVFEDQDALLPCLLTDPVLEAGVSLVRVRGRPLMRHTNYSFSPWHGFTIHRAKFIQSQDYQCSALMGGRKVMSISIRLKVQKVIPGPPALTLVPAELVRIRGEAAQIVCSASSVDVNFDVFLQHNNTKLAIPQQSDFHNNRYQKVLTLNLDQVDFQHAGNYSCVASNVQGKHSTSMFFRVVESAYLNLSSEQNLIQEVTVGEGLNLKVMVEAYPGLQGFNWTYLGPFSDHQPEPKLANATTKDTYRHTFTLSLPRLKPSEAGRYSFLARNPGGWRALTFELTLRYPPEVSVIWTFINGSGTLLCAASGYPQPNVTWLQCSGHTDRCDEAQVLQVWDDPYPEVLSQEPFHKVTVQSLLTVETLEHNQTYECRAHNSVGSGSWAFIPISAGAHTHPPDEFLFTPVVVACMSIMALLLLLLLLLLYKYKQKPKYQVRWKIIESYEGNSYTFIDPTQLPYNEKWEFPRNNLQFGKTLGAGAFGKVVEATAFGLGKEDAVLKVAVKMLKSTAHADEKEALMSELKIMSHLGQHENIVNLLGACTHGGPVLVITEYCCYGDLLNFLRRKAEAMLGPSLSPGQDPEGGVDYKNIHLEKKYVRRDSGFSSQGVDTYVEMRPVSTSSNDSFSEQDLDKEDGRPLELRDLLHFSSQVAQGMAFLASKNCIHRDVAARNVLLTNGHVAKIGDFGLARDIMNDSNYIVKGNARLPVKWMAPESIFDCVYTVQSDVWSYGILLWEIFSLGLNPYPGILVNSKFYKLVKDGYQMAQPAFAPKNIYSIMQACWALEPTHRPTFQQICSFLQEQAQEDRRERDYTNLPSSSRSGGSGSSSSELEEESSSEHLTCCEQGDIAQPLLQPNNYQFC

`COc1ccc(CNc2ccc(Cc3c[nH]c4ncc(C)cc34)c(F)n2)cn1` [Compound P-2029, [6-Fluoro-5-(5-methyl-1H-pyrrolo[2,3-b]pyridin-3-ylmethyl)-pyridin-2-yl]-(6-methoxy-pyridin-3-ylmethyl)-amine]: the IC50 was over 0.1 µM on BCR-KIT/BaF3 cells, under 0.1 µM at BCR-FMS/BaF3 cells (setting [1]) and under 0.1 µM at BCR-FMS/BaF3 cells (setting [2]). For the same molecule, the “BCR/BaF3 selectivity (Kit IC50/Fms IC50)” value at BCR-FMS/BaF3 cells is listed as over 20.
For the molecule `COc1cnc2[nH]cc(Cc3ccc(NCc4ccc(OC)nc4)nc3F)c2c1` [Compound P-2030, [6-Fluoro-5-(5-methoxy-1H-pyrrolo[2,3-b]pyridin-3-ylmethyl)-pyridin-2-yl]-(6-methoxy-pyridin-3-ylmethyl)-amine], the results for the IC50 on BCR-KIT/BaF3 cells, on BCR-FMS/BaF3 cells (setting [1]) and on BCR-FMS/BaF3 cells (setting [2]) were over 0.1 µM, under 0.1 µM and under 0.1 µM, respectively. For the same molecule, at BCR-FMS/BaF3 cells, the “BCR/BaF3 selectivity (Kit IC50/Fms IC50)” value is over 20.
On to `Cc1cnc2[nH]cc(Cc3ccc(NCc4ccc(C(F)(F)F)nc4)nc3F)c2c1` [Compound P-2031, [6-Fluoro-5-(5-methyl-1H-pyrrolo[2,3-b]pyridin-3-ylmethyl)-pyridin-2-yl]-(6-trifluoromethyl-pyridin-3-ylmethyl)-amine], for which the IC50 at BCR-KIT/BaF3 cells was over 0.1 µM; on BCR-FMS/BaF3 cells (setting [1]), under 0.1 µM; at BCR-FMS/BaF3 cells (setting [2]), under 0.1 µM. For the same molecule, the “BCR/BaF3 selectivity (Kit IC50/Fms IC50)” value on BCR-FMS/BaF3 cells was over 20.
Consider `COc1cnc2[nH]cc(Cc3ccc(NCc4ccc(Cl)cc4)nc3F)c2c1` [Compound P-2032, (4-Chloro-benzyl)-[6-fluoro-5-(5-methoxy-1H-pyrrolo[2,3-b]pyridin-3-ylmethyl)-pyridin-2-yl]-amine], for which the IC50 on BCR-KIT/BaF3 cells, at BCR-FMS/BaF3 cells (setting [1]) and on BCR-FMS/BaF3 cells (setting [2]) was under 0.1 µM throughout. The “BCR/BaF3 selectivity (Kit IC50/Fms IC50)” value at BCR-FMS/BaF3 cells is given as under 20.
Regarding `COc1ccnc2[nH]cc(Cc3ccc(NCc4ccc(Cl)cc4)nc3F)c12` [Compound P-2037, (4-Chloro-benzyl)-[6-fluoro-5-(4-methoxy-1H-pyrrolo[2,3-b]pyridin-3-ylmethyl)-pyridin-2-yl]-amine], the IC50 was over 0.1 µM at BCR-KIT/BaF3 cells, under 0.1 µM at BCR-FMS/BaF3 cells (setting [1]) and under 0.1 µM on BCR-FMS/BaF3 cells (setting [2]). Besides, the “BCR/BaF3 selectivity (Kit IC50/Fms IC50)” value at BCR-FMS/BaF3 cells was under 20.
For the molecule `COc1ccc(CNc2ncc(Cc3c[nH]c4ncc(Cl)cc34)cn2)cn1` [Compound P-2038, [5-(5-Chloro-1H-pyrrolo[2,3-b]pyridin-3-ylmethyl)-pyrimidin-2-yl]-(6-methoxy-pyridin-3-ylmethyl)-amine], the results for the IC50 on BCR-KIT/BaF3 cells, at BCR-FMS/BaF3 cells (setting [1]) and at BCR-FMS/BaF3 cells (setting [2]) were over 0.1 µM, under 0.1 µM and under 0.1 µM, respectively. Moreover, the “BCR/BaF3 selectivity (Kit IC50/Fms IC50)” value at BCR-FMS/BaF3 cells is reported as over 20.
For `COc1cnc2[nH]cc(Cc3ccc(NCc4cccnc4OC)nc3F)c2c1` [Compound P-2043, [6-Fluoro-5-(5-methoxy-1H-pyrrolo[2,3-b]pyridin-3-ylmethyl)-pyridin-2-yl]-(2-methoxy-pyridin-3-ylmethyl)-amine], the IC50 on BCR-KIT/BaF3 cells was over 0.1 µM; on BCR-FMS/BaF3 cells (setting [1]), under 0.1 µM. For the same molecule, the “BCR/BaF3 selectivity (Kit IC50/Fms IC50)” value on BCR-FMS/BaF3 cells is over 20.
For the molecule `COc1ncccc1CNc1ccc(Cc2c[nH]c3ncccc23)c(F)n1` [Compound P-2045, [6-Fluoro-5-(1H-pyrrolo[2,3-b]pyridin-3-ylmethyl)-pyridin-2-yl]-(2-methoxy-pyridin-3-ylmethyl)-amine], the IC50 is over 0.1 µM on BCR-KIT/BaF3 cells and under 0.1 µM at BCR-FMS/BaF3 cells (setting [1]). Further, the “BCR/BaF3 selectivity (Kit IC50/Fms IC50)” value at BCR-FMS/BaF3 cells is on record as over 20.
For `COc1ncccc1CNc1ccc(Cc2c[nH]c3ncc(C)cc23)c(F)n1` [Compound P-2052, [6-Fluoro-5-(5-methyl-1H-pyrrolo[2,3-b]pyridin-3-ylmethyl)-pyridin-2-yl]-(2-methoxy-pyridin-3-ylmethyl)-amine], in that order: over 0.1 µM, under 0.1 µM and over 20.
